Reference: patent US20100324319A1, “Tame based chelators and uses thereof” (priority 2003, published 2010)

Assays:
[1] = transchelation experiments with ^67Ga^3+ labelled chelators, DTPA as competing ligand; type: physicochemical; settings: ^67Ga labelled, after 10 days
Experimental: (§1) The chelators defined by compounds 8 and 15 in FIG. 1 and as described, supra, were tested in transchelation experiments, using ^111In^3+, and ^67Ga^3+, using the known chelator DTPA as a competing ligand. Labelling was carried out using standard methods.
Labelled TAME-HexA was 94% intact after 10 days, and 99% of the labelled TAME-HexB was stable after the same period of time.

[2] = transchelation experiments with ^111In^3+ labelled chelators, DTPA as competing ligand; type: physicochemical; settings: ^111In labelled, after 24 hours
Experimental: as §1

O=C(O)CN(CC(=O)O)CC(CN(CC(=O)O)CC(=O)O)(CN(CC(=O)O)CC(=O)O)CN(Cc1ccccc1)Cc1ccccc1 [Compound 15, 2-[Bis(carboxymethylamino)methyl]-2-[(dibenzylamino)methyl]-propylene-1,3-dinitrilotetraacetic acid]
labelled chelator intact / stable [1]: 99% | labelled material intact [2]: about 10%
